Measurements taken from patent publication US20240218022A1, “ANTI-VISTA MACROCYCLIC PEPTIDES AND COMPOSITIONS” (BRISTOL-MYERS SQUIBB COMPANY, priority 2022, published 2024).
Starred links: 1 amine or outer side, 2 acyl side, 3 side chain; linkers in the order of their positions; H or OH if unused. Positions of bridges follow the written chain, without caps; N, C: chain ends. Non-standard residues stand in square brackets, D forms with d. Residues, ends and D or L forms follow the SMILES beside them. ξ: configuration not given here. Phe(4-COOH) = N[C@@H](Cc1ccc(C(=O)O)cc1)C(=O)O; γGlu = O=C(O)[C@H](CCC(=O)[*:2])N[*:1]; βAsp = O=C(O)[C@H](CC(=O)[*:2])N[*:1]; Ile(3ξ) = CCC(C)[C@H](N)C(=O)O; NMeL = CN[C@@H](CC(C)C)C(=O)O; Ahp(2) = CCCCC[C@H](N)C(=O)O; NMeNle = CCCC[C@H](NC)C(=O)O; Tle = CC(C)(C)[C@H](N)C(=O)O; NMeV = CN[C@H](C(=O)O)C(C)C; NHexGly = CCCCCCNCC(=O)O; NMeA = CN[C@@H](C)C(=O)O; Nle = CCCC[C@H](N)C(=O)O; Orn = NCCC[C@H](N)C(=O)O; Aun = NCCCCCCCCCCC(=O)O; AEEA = NCCOCCOCC(=O)O

Biological target: T1, mouse VISTA (mVISTA) (Mus musculus, UniProt Q9D659)
T1 construct: expressed in transfected cells; host or cells: Human embryonic kidney 293T cells
T1 sequence (Q9D659 33-308): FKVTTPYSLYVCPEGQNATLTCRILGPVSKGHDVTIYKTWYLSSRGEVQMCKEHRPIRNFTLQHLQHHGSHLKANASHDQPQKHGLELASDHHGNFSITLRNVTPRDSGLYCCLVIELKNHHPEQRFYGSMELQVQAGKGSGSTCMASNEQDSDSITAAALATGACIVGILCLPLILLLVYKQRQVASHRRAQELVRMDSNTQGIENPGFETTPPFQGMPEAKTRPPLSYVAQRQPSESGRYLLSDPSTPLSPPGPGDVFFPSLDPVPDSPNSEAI
Experiment: Cell-Based Binding High-Content Assay For mVISTA (HC CBA mVISTA)
Conditions: read-out: HC CBA mVISTA IC50
How it was run: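 mVISTA-293T, 4,000 cells/well; cpd ± washout step; biotin-peptide 2 nM final, 30 min RT; SA-Alexa 647 30 min; formaldehyde/Hoechst fix; HCS imaging; 4PL IC50.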

IC50 [nM]	SMILES
18	CCCCCCN1CC(=O)N[C@@H](Cc2ccc(O)cc2)C(=O)N[C@@H](CC(C)C)C(=O)N[C@@H](CC(N)=O)C(=O)N[C@@H](CCCN)C(=O)N(C)[C@@H](C(C)C)C(=O)N[C@@H](CCCCC)C(=O)N2CCC[C@H]2C(=O)N[C@@H](C(C)(C)C)C(=O)N[C@@H](CO)C(=O)N[C@H](C(=O)N[C@@H](CCC(=O)NCCCCCCCCCCC(=O)O)C(=O)O)CSCC(=O)N[C@@H](Cc2ccccc2)C(=O)N[C@@H](Cc2ccc(O)cc2)C(=O)N[C@@H](CC(=O)O)C1=O [Example 2137] ({CH2CO}-FYD[NHexGly]YLN[Orn][NMeV][Ahp(2)]P[Tle]SC[γGlu][Aun]-OH; thioether N-14)
33	CCCCCCN1CC(=O)N[C@@H](Cc2ccc(O)cc2)C(=O)N[C@@H](CC(C)C)C(=O)N[C@@H](CC(N)=O)C(=O)N[C@@H](CCCN)C(=O)N(C)[C@@H](CC(C)C)C(=O)N[C@@H](CCCCC)C(=O)N2CCC[C@H]2C(=O)N[C@@H](C(C)(C)C)C(=O)N[C@@H](CO)C(=O)N[C@H](C(=O)N[C@@H](CCC(=O)NCCCCCCCCCCC(=O)O)C(=O)O)CSCC(=O)N[C@@H](Cc2ccccc2)C(=O)N[C@@H](Cc2ccc(O)cc2)C(=O)N[C@@H](CC(=O)O)C1=O [Example 2138] ({CH2CO}-FYD[NHexGly]YLN[Orn][NMeL][Ahp(2)]P[Tle]SC[γGlu][Aun]-OH; thioether N-14)
45.7	CCCCCCN1CC(=O)N[C@@H](Cc2ccc(O)cc2)C(=O)N[C@@H](CCCCN)C(=O)N[C@@H](CC(N)=O)C(=O)N[C@@H](CCCN)C(=O)N(C)[C@@H](CCCC)C(=O)N[C@@H](CCCCC)C(=O)N2CCC[C@H]2C(=O)N[C@@H](C(C)(C)C)C(=O)N[C@@H](CO)C(=O)N[C@H](C(=O)N[C@@H](CCC(=O)NCCCCCCCCCCC(=O)O)C(=O)O)CSCC(=O)N[C@@H](Cc2ccccc2)C(=O)N[C@@H](Cc2ccc(O)cc2)C(=O)N[C@@H](CC(=O)O)C1=O [Example 2139] ({CH2CO}-FYD[NHexGly]YKN[Orn][NMeNle][Ahp(2)]P[Tle]SC[γGlu][Aun]-OH; thioether N-14)
41.9	CCCCCCN1CC(=O)N[C@@H](Cc2ccc(O)cc2)C(=O)N[C@@H](CCCCN)C(=O)N[C@@H](CC(N)=O)C(=O)N[C@@H](CCCN)C(=O)N(C)[C@@H](CCCC)C(=O)N[C@@H](CCCCC)C(=O)N2CCC[C@H]2C(=O)N[C@@H](C(C)(C)C)C(=O)N[C@@H](CC(=O)O)C(=O)N[C@H](C(=O)N[C@@H](CCC(=O)NCCCCCCCCCCC(=O)O)C(=O)O)CSCC(=O)N[C@@H](Cc2ccccc2)C(=O)N[C@@H](Cc2ccc(O)cc2)C(=O)N[C@@H](CC(=O)O)C1=O [Example 2140] ({CH2CO}-FYD[NHexGly]YKN[Orn][NMeNle][Ahp(2)]P[Tle]DC[γGlu][Aun]-OH; thioether N-14)
26.5	CCCCCCN1CC(=O)N[C@@H](Cc2ccc(O)cc2)C(=O)N[C@@H](CCCCC)C(=O)N[C@@H](CC(N)=O)C(=O)N[C@@H](CCCN)C(=O)N(C)[C@@H](CCCC)C(=O)N[C@@H](CCCCC)C(=O)N2CCC[C@H]2C(=O)N[C@@H](C(C)(C)C)C(=O)N[C@@H](CC(=O)O)C(=O)N[C@H](C(=O)N[C@@H](CCC(=O)NCCCCCCCCCCC(=O)O)C(=O)O)CSCC(=O)N[C@@H](Cc2ccccc2)C(=O)N[C@@H](Cc2ccc(O)cc2)C(=O)N[C@@H](CC(=O)O)C1=O [Example 2141] ({CH2CO}-FYD[NHexGly]Y[Ahp(2)]N[Orn][NMeNle][Ahp(2)]P[Tle]DC[γGlu][Aun]-OH; thioether N-14)
32.5	CCCCCCN1CC(=O)N[C@@H](Cc2ccc(O)cc2)C(=O)N[C@@H](CCCCC)C(=O)N[C@@H](CC(N)=O)C(=O)N[C@@H](CCCNC(=N)N)C(=O)N(C)[C@@H](CCCC)C(=O)N[C@@H](CCCCC)C(=O)N2CCC[C@H]2C(=O)N[C@@H](C(C)(C)C)C(=O)N[C@@H](CO)C(=O)N[C@H](C(=O)N[C@@H](CCC(=O)NCCCCCCCCCCC(=O)O)C(=O)O)CSCC(=O)N[C@@H](Cc2ccccc2)C(=O)N[C@@H](Cc2ccc(O)cc2)C(=O)N[C@@H](CC(=O)O)C1=O [Example 2142] ({CH2CO}-FYD[NHexGly]Y[Ahp(2)]NR[NMeNle][Ahp(2)]P[Tle]SC[γGlu][Aun]-OH; thioether N-14)
29.4	CCCCCCN1CC(=O)N[C@@H](Cc2ccc(O)cc2)C(=O)N[C@@H](CCCCC)C(=O)N[C@@H](CC(N)=O)C(=O)N[C@@H](CCCN)C(=O)N(C)[C@@H](CCCC)C(=O)N[C@@H](CCCCC)C(=O)N2CCC[C@H]2C(=O)N[C@@H](C(C)(C)C)C(=O)N[C@@H](CO)C(=O)N[C@H](C(=O)N[C@@H](CCC(=O)NCCCCCCCCCCC(=O)O)C(=O)O)CSCC(=O)N[C@@H](Cc2ccccc2)C(=O)N[C@@H](Cc2ccc(O)cc2)C(=O)N[C@@H](CC(=O)O)C1=O [Example 2143] ({CH2CO}-FYD[NHexGly]Y[Ahp(2)]N[Orn][NMeNle][Ahp(2)]P[Tle]SC[γGlu][Aun]-OH; thioether N-14)
39	CCCCCCN1CC(=O)N[C@@H](Cc2ccc(O)cc2)C(=O)N[C@@H](CCCCC)C(=O)N[C@@H](CC(N)=O)C(=O)N[C@@H](CCCN)C(=O)N(C)[C@@H](CCCC)C(=O)N[C@@H](CCCCC)C(=O)N2CCC[C@H]2C(=O)N[C@@H](C(C)(C)C)C(=O)N[C@@H](CO)C(=O)N[C@H](C(=O)N[C@@H](CCC(=O)NCCCCCCCCCCC(=O)O)C(=O)O)CSCC(=O)N[C@@H](Cc2ccccc2)C(=O)N[C@@H](Cc2c[nH]c3ccccc23)C(=O)N[C@@H](CC(=O)O)C1=O [Example 2144] ({CH2CO}-FWD[NHexGly]Y[Ahp(2)]N[Orn][NMeNle][Ahp(2)]P[Tle]SC[γGlu][Aun]-OH; thioether N-14)
19.8	CCCCCCN1CC(=O)N[C@@H](Cc2ccc(O)cc2)C(=O)N[C@@H](CCCC)C(=O)N[C@@H](CC(N)=O)C(=O)N[C@@H](CCCNC(=N)N)C(=O)N(C)[C@@H](CCCC)C(=O)N[C@@H](CCCCC)C(=O)N(C)[C@@H](C)C(=O)N[C@@H](C(C)(C)C)C(=O)N[C@@H](CO)C(=O)N[C@H](C(=O)N[C@@H](CC(=O)NCCOCCOCC(=O)NCCCCCCCCCCC(=O)O)C(=O)O)CSCC(=O)N[C@@H](Cc2ccccc2)C(=O)N[C@@H](Cc2c[nH]c3ccccc23)C(=O)N[C@@H](CC(=O)O)C1=O [Example 2169] ({CH2CO}-FWD[NHexGly]Y[Nle]NR[NMeNle][Ahp(2)][NMeA][Tle]SC[βAsp][AEEA][Aun]-OH; thioether N-14)
28.8	CCCCCCN1CC(=O)N[C@@H](Cc2ccc(O)cc2)C(=O)N[C@@H](CCCC)C(=O)N[C@@H](CC(N)=O)C(=O)N[C@@H](CCCNC(=N)N)C(=O)N(C)[C@@H](CCCC)C(=O)N[C@@H](CCCCC)C(=O)N(C)[C@@H](C)C(=O)N[C@@H](C(C)CC)C(=O)N[C@@H](CO)C(=O)N[C@H](C(=O)N[C@@H](CC(=O)NCCOCCOCC(=O)NCCCCCCCCCCC(=O)O)C(=O)O)CSCC(=O)N[C@@H](Cc2ccccc2)C(=O)N[C@@H](Cc2c[nH]c3ccccc23)C(=O)N[C@@H](CC(=O)O)C1=O (some centres unmarked) [Example 2171] ({CH2CO}-FWD[NHexGly]Y[Nle]NR[NMeNle][Ahp(2)][NMeA][Ile(3ξ)]SC[βAsp][AEEA][Aun]-OH; thioether N-14)
30.6	CCCCCCN1CC(=O)N[C@@H](Cc2ccc(O)cc2)C(=O)N[C@@H](CCCC)C(=O)N[C@@H](CC(N)=O)C(=O)N[C@@H](CCCNC(=N)N)C(=O)N(C)[C@@H](CCCC)C(=O)N[C@@H](CCCCC)C(=O)N(C)[C@@H](C)C(=O)N[C@@H](C(C)C)C(=O)N[C@@H](CO)C(=O)N[C@H](C(=O)N[C@@H](CC(=O)NCCOCCOCC(=O)NCCCCCCCCCCC(=O)O)C(=O)O)CSCC(=O)N[C@@H](Cc2ccccc2)C(=O)N[C@@H](Cc2c[nH]c3ccccc23)C(=O)N[C@@H](CC(=O)O)C1=O [Example 2172] ({CH2CO}-FWD[NHexGly]Y[Nle]NR[NMeNle][Ahp(2)][NMeA]VSC[βAsp][AEEA][Aun]-OH; thioether N-14)
16.6	CCCCCCN1CC(=O)N[C@@H](Cc2ccc(O)cc2)C(=O)N[C@@H](CCCC)C(=O)N[C@@H](CC(N)=O)C(=O)N[C@@H](CCCNC(=N)N)C(=O)N(C)[C@@H](C)C(=O)N[C@@H](CCCCC)C(=O)N2CCC[C@H]2C(=O)N[C@@H](C(C)C)C(=O)N[C@@H](CO)C(=O)N[C@H](C(=O)N[C@@H](CC(=O)NCCOCCOCC(=O)NCCCCCCCCCCC(=O)O)C(=O)O)CSCC(=O)N[C@@H](Cc2ccccc2)C(=O)N[C@@H](Cc2c[nH]c3ccccc23)C(=O)N[C@@H](CC(=O)O)C1=O [Example 2174] ({CH2CO}-FWD[NHexGly]Y[Nle]NR[NMeA][Ahp(2)]PVSC[βAsp][AEEA][Aun]-OH; thioether N-14)
19.8	CCCCCCN1CC(=O)N[C@@H](Cc2ccc(O)cc2)C(=O)N[C@@H](CCCC)C(=O)N[C@@H](CC(N)=O)C(=O)N[C@@H](CCCNC(=N)N)C(=O)N[C@@H](Cc2ccc(C(=O)O)cc2)C(=O)N[C@@H](CCCCC)C(=O)N2CCC[C@H]2C(=O)N[C@@H](C(C)C)C(=O)N[C@@H](CO)C(=O)N[C@H](C(=O)N[C@@H](CC(=O)NCCOCCOCC(=O)NCCCCCCCCCCC(=O)O)C(=O)O)CSCC(=O)N[C@@H](Cc2ccccc2)C(=O)N[C@@H](Cc2c[nH]c3ccccc23)C(=O)N[C@@H](CC(=O)O)C1=O [Example 2176] ({CH2CO}-FWD[NHexGly]Y[Nle]NR[Phe(4-COOH)][Ahp(2)]PVSC[βAsp][AEEA][Aun]-OH; thioether N-14)

SMILES	IC50 [nM]
CCCCCCN1CC(=O)N[C@@H](Cc2ccc(O)cc2)C(=O)N[C@@H](CCCC)C(=O)N[C@@H](CC(N)=O)C(=O)N[C@@H](CCCNC(=N)N)C(=O)N(C)[C@@H](CCCC)C(=O)N[C@@H](CCCCC)C(=O)N(C)[C@@H](CCCC)C(=O)N[C@@H](C(C)(C)C)C(=O)N[C@@H](CO)C(=O)N[C@H](C(=O)N[C@@H](CC(=O)NCCOCCOCC(=O)NCCCCCCCCCCC(=O)O)C(=O)O)CSCC(=O)N[C@@H](Cc2ccccc2)C(=O)N[C@@H](Cc2c[nH]c3ccccc23)C(=O)N[C@@H](CC(=O)O)C1=O [Example 2173] ({CH2CO}-FWD[NHexGly]Y[Nle]NR[NMeNle][Ahp(2)][NMeNle][Tle]SC[βAsp][AEEA][Aun]-OH; thioether N-14)	35.1
